# Test results reported in the Kinase Knowledgebase extract (Sharma et al. 2016).
# Target: CDK2 (human) (UniProt P24941)
# Assay: Enzyme Assay
row,IC50 [µM],Compound
1,< 5,Cc1cnc(Nc2cccc(S(N)(=O)=O)c2)nc1-c1cccc2[nH]ccc12
2,< 5,OCCCn1ccc2c(-c3ccnc(Nc4cccc(Cl)c4)n3)cccc21
3,< 5,O=C(Cn1ccc2c(-c3ccnc(Nc4cccc(Cl)c4)n3)cccc21)NCC1CCCN1 (stereo unspecified)
4,< 5,OCCn1ccc2c(-c3ccnc(Nc4cccc(Cl)c4)n3)cccc21
5,< 5,Cc1cnc(Nc2cccc(S(C)(=O)=O)c2)nc1-c1cccc2[nH]ccc12
6,< 5,O=C(Cn1ccc2c(-c3ccnc(Nc4cccc(Cl)c4)n3)cccc21)NCCO
7,< 5,Cn1ccc2c(-c3ccnc(Nc4cccc(Cl)c4)n3)cccc21
8,< 5,CS(=O)(=O)c1cccc(Nc2nccc(-c3cccc4[nH]ccc34)n2)c1
9,< 5,CN(C)C(=O)Cn1ccc2c(-c3ccnc(Nc4cccc(Cl)c4)n3)cccc21
10,< 5,Cc1ccc2[nH]ccc2c1-c1ccnc(Nc2cccc(S(C)(=O)=O)c2)n1
11,< 5,CC(C)(C)NC(=O)Cn1ccc2c(-c3ccnc(Nc4cccc(Cl)c4)n3)cccc21
12,< 5,CN(C)CCCn1ccc2c(-c3ccnc(Nc4cccc(Cl)c4)n3)cccc21
13,< 5,CN(C)CCn1ccc2c(-c3ccnc(Nc4cccc(Cl)c4)n3)cccc21
14,< 5,COc1cnc(Nc2cccc(S(N)(=O)=O)c2)nc1-c1cccc2[nH]ccc12
15,< 5,CNC(=O)Cn1ccc2c(-c3ccnc(Nc4cccc(Cl)c4)n3)cccc21
16,< 5,NS(=O)(=O)c1cccc(Nc2ncc(F)c(-c3cccc4[nH]ccc34)n2)c1
